Reference: patent US20230227453A1 (priority 2020, published 2023)

Legend:
[1] = system: C57BL/6J Mice; assay: Head twitch response (HTR) experiments; type: in vivo, mouse
Description: Head twitch response (HTR) experiments. All HTR experiments were performed by Transpharmation Ltd, London, UK. C57BL/6J Mice (9-10 weeks old) were obtained and housed following an IACUC approved protocol. The mice were habituated in the test cage for at least 30 min, injected intraperitoneally with compound (injection volume 5 ml/kg), returned to the empty test cage, and filmed for 20 minutes. Each video is scored for the number of head-twitches by a trained observer blinded to treatment condition.

[2] = system: 5HT2A sensor; type: cell-based
[3] = system: 5HT2A sensor; type: cell-based; remark: listed apart in the source
[4] = system: rat cortical neurons; assay: Neurite Outgrowth Assay (Procedure B); type: cell-based; set-up: key: A: Statistically significant mean increase as a percent of DMSO control at 10 μM or less; B: No statistically significant mean increase as a percent of DMSO control at 10 μM or less; conditions: primary rat neuronal cultures, 72h, vs DMSO control, 10 μM or less
Description: Neurite Outgrowth Assay (Procedure B). Pregnant Wistar rats (Janvier; France) were used for the study. They were delivered 6 days before their use. Upon arrival at Neurofit animal facility, they were housed one per cage and maintained in a room with controlled temperature (21-22° C.) and a reversed light-dark cycle (12h/12h; lights on: 17:30-05:30; lights off: 05:30-17:30) with food and water available ad libitum.
Female Wistar rats of 17 days gestation were killed by cervical dislocation and the fetuses were removed from the uterus. Their brains were placed in ice-cold medium of Leibovitz (L15, Gibco, Fisher bioblock, France). Cortices were dissected and meninges were carefully removed. The cortical neurons were dissociated by trypsinization for 30 min at 37° C. (trypsin-EDTA, Gibco) in presence of 0.1 mg/ml DNAse I (Roche, France). The reaction was stopped by addition of Dulbecco's Modified Eagle Medium (DMEM; Gibco) with 10% of fetal bovine serum (FBS; Gibco). The suspension was triturated with a 10-ml pipette and using a needle syringe 21G and centrifuged at 350×g for 10 min at room temperature. The pellet of dissociated cells was resuspended in a medium consisting of Neurobasal (Gibco) supplemented with 2% B27 supplement (Gibco), 0.5 mM L-Glutamine (Gibco), an antibiotic-antimicotic mixture. Viable cells were counted in a Neubauer cytometer using the trypan blue exclusion test (Sigma). Cells were seeded at a density of 10000 cells per well in 96-well plate (Costar) precoated with poly-L-lysine. Test compound at different concentrations were added to the cultures. Donepezil (positive control) was tested at 250 nM.
After 72h (3 days) of plating, cultures were fixed with paraformaldehyde in PBS (4%, Sigma) for 30 min at 4° C. Then, cells were successively permeabilized with 0.1% Triton X100 for 30 min, saturated with PBS containing 3% of BSA and were incubated 1 h with anti-beta III tubulin antibody (Sigma) at 1/10 000 in PBS containing 0.5% of BSA. Cells were washed three times with PBS containing 0.5% of BSA, and they were incubated 1 h with goat anti-mouse antibody coupled with AF488 (Invitrogen A11001) diluted at 1/1000 in PBS containing 0.5% of BSA. Finally, nuclei were staining with DAPI 1 mg/ml at 1/1000 in PBS containing 0.5% of BSA. After rinsing with PBS, the plate was filmed and neurite networks were examined and analyzed using High-Content Screening (Celllnsight, Thermo Scientific). The average number of neurites per neuron and the average total length of neurites per neuron were the main parameters analyzed. Analysis of data was performed using analysis of variance (ANOVA). The Fisher's Protected Least Significant Difference test was used for multiple comparisons. A p value≤0.05 was considered significant. The software used is StatView 5.0 from SAS Institut.

[5] = molecular target: T1, 5-HT2A (Homo sapiens, UniProt P28223); assay: Serotonin 5-HT2A in vitro cellular IPOne agonism assay; type: cell-based; set-up: host or cells: CHO-K1; conditions: CHO-K1 cells, IPOne HTRF, 60 min
T1 sequence (P28223 whole entry): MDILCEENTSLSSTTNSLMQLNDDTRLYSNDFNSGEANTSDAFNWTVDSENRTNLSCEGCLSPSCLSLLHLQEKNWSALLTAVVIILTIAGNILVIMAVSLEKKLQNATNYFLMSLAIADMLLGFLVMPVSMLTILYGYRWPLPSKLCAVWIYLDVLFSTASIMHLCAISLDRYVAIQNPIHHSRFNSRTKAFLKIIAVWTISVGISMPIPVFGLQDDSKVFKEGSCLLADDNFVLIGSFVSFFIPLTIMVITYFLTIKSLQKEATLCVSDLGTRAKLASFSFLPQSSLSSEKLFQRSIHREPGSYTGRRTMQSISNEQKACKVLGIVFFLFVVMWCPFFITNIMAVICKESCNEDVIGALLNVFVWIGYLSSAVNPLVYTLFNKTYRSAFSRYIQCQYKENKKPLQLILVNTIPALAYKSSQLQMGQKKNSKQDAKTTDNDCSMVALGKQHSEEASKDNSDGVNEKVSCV
Description: Serotonin 5-HT2A In Vitro Cellular IPOne Agonism Assay. The 5-HT2A IPOne HTRF assay was performed at Epics Therapeutics S.A. (Belgium, FAST-0505I) using conventional methods. Briefly, CHO-K1 cells expressing human recombinant 5-HT2A receptor grown to mid-log phase in culture media without antibiotics were detached with PBS-EDTA, centrifuged, and resuspended in medium without antibiotics buffer. 20,000 cells are distributed in a 96 well plate and incubated overnight at 37° C. with 5% CO2.
For agonist testing, the medium is removed and 20 μl of assay buffer plus 20 μl of test compound or reference agonist are added in each well. The plate is incubated for 60 min. at 37° C. with 5% CO2.
After addition of the lysis buffer containing IP1-d2 and anti-IP1 cryptate detection reagents, plates are incubated 1-hour at room temperature, and fluorescence ratios are measured according to the manufacturer specification, with the HTRF kit.

[6] = molecular target: T1, 5-HT2A; assay: Serotonin 5-HT2A in vitro radioligand binding competition assay; set-up: purchased Epics Therapeutics S.A. (Belgium) FAST-0505B; host or cells: membrane extracts; conditions: radiotracer [3H]-DOI, membrane extracts
Description: Serotonin 5-HT2A In Vitro Radioligand Binding Competition Assay. The 5-HT2A radioligand binding competition assay was performed at Epics Therapeutics S.A. (Belgium, FAST-0505B) using conventional methods. Briefly, competition binding is performed in duplicate in the wells of a 96 well plate (Master Block, Greiner, 786201) containing binding buffer (optimized for each receptor), membrane extracts (amount of protein/well optimized for each receptor), radiotracer [^3H]-DOI (final concentration optimized for each receptor) and test compound. Nonspecific binding is determined by co-incubation with 200-fold excess of cold competitor. The samples are incubated in a final volume of 0.1 ml at a temperature and for a duration optimized for each receptor and then filtered over filter plates. Filters are washed six times with 0.5 ml of ice-cold washing buffer (optimized for each receptor) and 50 μl of Microscint 20 (Packard) are added in each well. The plates are incubated 15 min on an orbital shaker and then counted with a TopCount™ for 1 min/well.

Structure (SMILES)	activation of the 5HT2A sensor assay [2]	Increase in Neurite Length [4]	Increase in Neurite Number [4]	EC50 [5] [nM]	IC50 [6] [nM]	other results
COc1ccc2c(CCN(C)C)c[nH]c2c1 [Example 6-MeO-DMT]	do not activate the 5HT2A sensor assay in agonist mode					head-twitch response (HTR) [1]: does not produce a HTR; competition with 5-HT in the 5HT2A sensor assay [3]: compete off 5-HT
CNC(C)Cc1ccc2c(c1)OCO2 [L-MDMA]	do not activate the 5HT2A sensor assay in agonist mode					
CCN(CC)C(=O)[C@@H]1C=C2c3cccc4[nH]c(Br)c(c34)C[C@H]2N(C)C1 [BOL148]	do not activate the 5HT2A sensor assay in agonist mode					competition with 5-HT in the 5HT2A sensor assay [3]: compete with 5HT binding to 5HT2A
CCN(CC)C(=O)[C@@H]1C=C2c3cccc4[nH]cc(c34)C[C@H]2N(C)C1 [LSD]	activate the 5HT2A sensor assay in agonist mode					
CCN(CC)CCc1c[nH]c2cc(F)ccc12 [Example 6-F-DET]	do not activate the 5HT2A sensor assay in agonist mode					competition with 5-HT in the 5HT2A sensor assay [3]: compete with 5HT binding to 5HT2A
Cc1ccc2c3c([nH]c2n1)CCN(C1COC1)CC3 [Example 9, 2-methyl-7-(oxetan-3-yl)-5,6,7,8,9,10-hexahydropyrido[3′,2′:4,5]pyrrolo[2,3-d]azepine]		B	B	> 10000	> 10000	
COc1ccc2c3c([nH]c2n1)CCNCC3 [Example 2, 2-methoxy-5,6,7,8,9,10-hexahydropyrido[3′,2′:4,5]pyrrolo[2,3-d]azepine]		A	A	10 to 100	101 to 1000	
COc1ccc2c3c(n(C)c2n1)CCN(C)CC3 [Example 3, 2-methoxy-7,10-dimethyl-5,6,7,8,9,10-hexahydropyrido[3′,2′:4,5]pyrrolo[2,3-d]azepine]		B	B	101 to 1000	1000 to 10000	
COc1ccc2c3c(n(C)c2n1)CCNCC3 [Example 5, 2-methoxy-10-methyl-5,6,7,8,9,10-hexahydropyrido[3′,2′:4,5]pyrrolo[2,3-d]azepine]		B	B	10 to 100	101 to 1000	
CN(C)CCc1c[nH]c2ccccc12 [DMT, N,N-dimethyltryptamine]	activate the 5HT2A sensor assay in agonist mode					
O=C(c1ccc(F)cc1)C1CCN(CCn2c(=O)[nH]c3ccccc3c2=O)CC1 [Ketanserin]	do not activate the 5HT2A sensor assay in agonist mode					competition with 5-HT in the 5HT2A sensor assay [3]: compete with 5HT binding to 5HT2A
Cc1ccc2c3c([nH]c2n1)CCN(C)CC3 [Example 7, 2,7-dimethyl-5,6,7,8,9,10-hexahydropyrido[3′,2′:4,5]pyrrolo[2,3-d]azepine]		B	B	1000 to 10000	1000 to 10000	
COc1ccc2[nH]cc(CCN(C)C)c2c1 [Example 5-MeO-DMT]	activate the 5HT2A sensor assay in agonist mode					head-twitch response (HTR) [1]: produces a robust, dose-dependent head-twitch response
COc1ccc2c3c([nH]c2n1)CCN(C)CC3 [Example 1, 2-methoxy-7-methyl-5,6,7,8,9,10-hexahydropyrido[3′,2′:4,5]pyrrolo[2,3-d]azepine]		A	A	101 to 1000	1000 to 10000	Number of head twitches ([1]; intraperitoneal, 10 mg/kg, filmed for 20 minutes): A (10 head twitches or less at 10 mg/kg)
COc1cc(CC(C)N)c(OC)cc1I (centres unmarked) [DOI]	activate the 5HT2A sensor assay in agonist mode					
CN[C@H](C)Cc1ccc2c(c1)OCO2 [R-MDMA]	do not activate the 5HT2A sensor assay in agonist mode					
